Experimental data published in ChEMBL document CHEMBL1201862, “PubChem BioAssay data set” (2004).
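The compound was tested at five concentrations on cells cultured in 96-well plates, with a 48-hour exposure period. Here, GI50 denotes the concentration required for 50% inhibition of growth.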 The source made the active and inactive calls. No stated cut-off is given here; in the data, active = GI50 up to about 1.1 µM and inactive = higher.

Assays:
Experiment in all cases: NCI anticancer screen, dose series, 48 h
ACHN = tested on: ACHN
SK-OV-3 = tested on: SK-OV-3
RXF 393 = tested on: RXF 393
MOLT-4 = tested on: MOLT-4
RPMI-8226 = tested on: RPMI-8226
OVCAR-4 = tested on: OVCAR-4
U-251 = tested on: U-251
OVCAR-5 = tested on: OVCAR-5
HT-29 = tested on: HT-29
UACC-62 = tested on: UACC-62
SNB-19 = tested on: SNB-19
NCI-H226 = tested on: NCI-H226
HOP-62 = tested on: HOP-62
OVCAR-3 = tested on: OVCAR-3
NCI-H460 = tested on: NCI-H460
T47D = tested on: T47D
SK-MEL-5 = tested on: SK-MEL-5
SNB-75 = tested on: SNB-75
BT-549 = tested on: BT-549
HCT-116 = tested on: HCT-116
COLO 205 = tested on: COLO 205
MDA-N = tested on: MDA-N
NCI-H23 = tested on: NCI-H23
A549 = tested on: A549
A498 = tested on: A498
SR = tested on: SR
SF-539 = tested on: SF-539
SF-295 = tested on: SF-295
Malme-3M = tested on: Malme-3M
CCRF-CEM = tested on: CCRF-CEM
K562 = tested on: K562
IGROV-1 = tested on: IGROV-1
TK-10 = tested on: TK-10
HCC 2998 = tested on: HCC 2998
HCT-15 = tested on: HCT-15
EKVX = tested on: EKVX
OVCAR-8 = tested on: OVCAR-8
UO-31 = tested on: UO-31
CAKI-1 = tested on: CAKI-1
KM12 = tested on: KM12
UACC-257 = tested on: UACC-257
786-0 = tested on: 786-0
SN12C = tested on: SN12C
MDA-MB-231 = tested on: MDA-MB-231
NCI/ADR-RES = tested on: NCI/ADR-RES
NCI-H522 = tested on: NCI-H522
SW-620 = tested on: SW-620
HL-60 = tested on: HL-60
PC-3 = tested on: PC-3
SF-268 = tested on: SF-268
SK-MEL-28 = tested on: SK-MEL-28
DU-145 = tested on: DU-145
HOP-92 = tested on: HOP-92
MDA-MB-435 = tested on: MDA-MB-435
Hs-578T = tested on: Hs-578T
SK-MEL-2 = tested on: SK-MEL-2
M14 = tested on: M14
LOX IMVI = tested on: LOX IMVI

C[C@]12CC[C@H]3[C@@H](CC[C@]4(O)C[C@@H](O)CC[C@]34CO)[C@@]1(O)CC[C@@H]2C1=CC(=O)OC1 [STROPHANTHIDOL]
GI50 (ACHN): 0.467 µM (active) | GI50 (SK-OV-3): 2.64 µM (inactive) | GI50 (RXF 393): 0.223 µM (active) | GI50 (MOLT-4): 0.225 µM (active) | GI50 (RPMI-8226): 1.95 µM (inactive) | GI50 (OVCAR-4): 1.12 µM (inactive) | GI50 (U-251): 2.7 µM (inactive) | GI50 (OVCAR-5): 3.07 µM (inactive) | GI50 (HT-29): 1.94 µM (inactive) | GI50 (UACC-62): 3.52 µM (inactive) | GI50 (SNB-19): 5.94 µM (inactive) | GI50 (NCI-H226): 4.03 µM (inactive) | GI50 (HOP-62): 1.36 µM (inactive) | GI50 (OVCAR-3): 0.993 µM (active) | GI50 (NCI-H460): 0.431 µM (active) | GI50 (T47D): 3.3 µM (inactive) | GI50 (SK-MEL-5): 0.979 µM (active) | GI50 (SNB-75): 4.02 µM (inactive) | GI50 (BT-549): 1.51 µM (inactive) | GI50 (HCT-116): 0.553 µM (active) | GI50 (COLO 205): 3.73 µM (inactive) | GI50 (MDA-N): 2.99 µM (inactive) | GI50 (NCI-H23): 1.48 µM (inactive) | GI50 (A549): 0.453 µM (active) | GI50 (A498): 1.61 µM (inactive) | GI50 (SR): 0.861 µM (active) | GI50 (SF-539): 1.15 µM (inactive) | GI50 (SF-295): 1.21 µM (inactive) | GI50 (Malme-3M): 2.21 µM (inactive) | GI50 (CCRF-CEM): 0.522 µM (active) | GI50 (K562): 2.21 µM (inactive) | GI50 (IGROV-1): 2.79 µM (inactive) | GI50 (TK-10): 1.52 µM (inactive) | GI50 (HCC 2998): 22.9 µM (inactive) | GI50 (HCT-15): 2 µM | GI50 (EKVX): 1.39 µM (inactive) | GI50 (OVCAR-8): 1.77 µM (inactive) | GI50 (UO-31): 1.9 µM (inactive) | GI50 (CAKI-1): 0.494 µM (active) | GI50 (KM12): 3.66 µM (inactive) | GI50 (UACC-257): 2.99 µM (inactive) | GI50 (786-0): 1.42 µM (inactive) | GI50 (SN12C): 3.47 µM (inactive) | GI50 (MDA-MB-231): 8.45 µM (inactive) | GI50 (NCI/ADR-RES): 1.51 µM (inactive) | GI50 (NCI-H522): 0.447 µM (active) | GI50 (SW-620): 2.37 µM (inactive) | GI50 (HL-60): 1.64 µM (inactive) | GI50 (PC-3): 2 µM (inactive) | GI50 (SF-268): 0.982 µM (active) | GI50 (SK-MEL-28): 4.78 µM (inactive) | GI50 (DU-145): 1.36 µM (inactive) | GI50 (HOP-92): 2.78 µM (inactive) | GI50 (MDA-MB-435): 2.57 µM (inactive) | GI50 (Hs-578T): 1.46 µM (inactive) | GI50 (SK-MEL-2): 2.5 µM (inactive) | GI50 (M14): 3.01 µM (inactive) | GI50 (LOX IMVI): 2.01 µM (inactive)

O=C(NC1CCN(Cc2ccccc2)CC1)c1ccc(I)cc1
GI50 (ACHN): 96.2 µM (inactive) | GI50 (SK-OV-3): 44.1 µM (inactive) | GI50 (RXF 393): 25.2 µM (inactive) | GI50 (MOLT-4): > 100 µM (inactive) | GI50 (RPMI-8226): 63.5 µM (inactive) | GI50 (OVCAR-4): > 100 µM (inactive) | GI50 (U-251): 81.1 µM (inactive) | GI50 (OVCAR-5): > 100 µM (inactive) | GI50 (HT-29): 19.8 µM (inactive) | GI50 (UACC-62): 59.4 µM (inactive) | GI50 (SNB-19): > 100 µM (inactive) | GI50 (NCI-H226): 33.4 µM (inactive) | GI50 (HOP-62): 55.6 µM (inactive) | GI50 (OVCAR-3): > 100 µM (inactive) | GI50 (NCI-H460): > 100 µM (inactive) | GI50 (T47D): > 100 µM (inactive) | GI50 (SK-MEL-5): 17.7 µM (inactive) | GI50 (BT-549): 87.5 µM (inactive) | GI50 (HCT-116): 39.6 µM (inactive) | GI50 (COLO 205): 21.8 µM (inactive) | GI50 (MDA-N): 54.6 µM (inactive) | GI50 (NCI-H23): 94.2 µM (inactive) | GI50 (A549): 76.4 µM (inactive) | GI50 (A498): > 100 µM (inactive) | GI50 (SR): > 100 µM (inactive) | GI50 (SF-539): 78.3 µM (inactive) | GI50 (SF-295): 29.5 µM (inactive) | GI50 (Malme-3M): 1.98 µM (inactive) | GI50 (CCRF-CEM): 76.7 µM (inactive) | GI50 (K562): 42.4 µM (inactive) | GI50 (IGROV-1): 94 µM (inactive) | GI50 (TK-10): > 100 µM (inactive) | GI50 (HCT-15): 59.6 µM | GI50 (EKVX): > 100 µM (inactive) | GI50 (OVCAR-8): > 100 µM (inactive) | GI50 (UO-31): 22.9 µM (inactive) | GI50 (CAKI-1): 70.1 µM (inactive) | GI50 (KM12): > 100 µM (inactive) | GI50 (UACC-257): 45.8 µM (inactive) | GI50 (786-0): 97.5 µM (inactive) | GI50 (SN12C): > 100 µM (inactive) | GI50 (MDA-MB-231): 19.4 µM (inactive) | GI50 (NCI/ADR-RES): > 100 µM (inactive) | GI50 (NCI-H522): 63.5 µM (inactive) | GI50 (SW-620): > 100 µM (inactive) | GI50 (HL-60): > 100 µM (inactive) | GI50 (PC-3): 62.7 µM (inactive) | GI50 (SF-268): 63.8 µM (inactive) | GI50 (SK-MEL-28): 63.2 µM (inactive) | GI50 (DU-145): 91.6 µM (inactive) | GI50 (HOP-92): 34 µM (inactive) | GI50 (MDA-MB-435): 33.3 µM (inactive) | GI50 (Hs-578T): 33.2 µM (inactive) | GI50 (SK-MEL-2): 75.9 µM (inactive) | GI50 (M14): 39 µM (inactive) | GI50 (LOX IMVI): > 100 µM (inactive)
